Key:
Type in all cases: in vivo
[1] = tested on: human subject suffering from rheumatoid arthritis; assay: Example A: tablets given orally to a subject with rheumatoid arthritis; details: tablet with 15 mg Example 9, three tablets per day orally for 2 years, 60 kg person
Description: A tablet composition for oral administration, according to the present invention, is made comprising:
A human subject weighing 60 kg (132 lbs), suffering from rheumatoid arthritis, is treated by a method of this invention. Specifically, for 2 years, a regimen of three tablets per day is administered orally to said subject.

[2] = tested on: human subject suffering from osteoarthritis; assay: Example B: capsule given daily to a subject with osteoarthritis; details: capsule containing 70 mg of Example 3 daily for 5 years, 90 kg person
Description: A capsule for oral administration, according to the present invention, is made comprising:
A human subject weighing 90 kg (198 lbs), suffering from osteoarthritis, is treated by a method of this invention. Specifically, for 5 years, a capsule containing 70 mg of Example 3 is administered daily to said subject.

[3] = tested on: patient suffering from chemical burns; assay: Example D: topical composition applied to chemical burns; details: 0.20% w/v Compound of Example 3, topical, at each dressing change (b.i.d.)
Description: An topical composition for local administration, according to the present invention, is made comprising:
A patient suffering from chemical burns applies the composition at each dressing change (b.i.d.).

| SMILES | inflammation at the end of the treatment period [1] | mobility at the end of the treatment period [1] | erosion/fibrillation of the articular cartilage, examined via orthoscopy [2] | scarring after chemical burns [3] |
| --- | --- | --- | --- | --- |
| COc1ccc(S(=O)(=O)N2CC(C)(C)C(=O)N(Cc3ccccc3)C2C(=O)NO)cc1 (stereo not shown) [Example 9, N-hydroxy-1-[(4-methoxyphenyl)sulfonyl]-3-phenylmethyl-4-oxo-5,5-dimethyl-hexahydro-pyrimidin-2-carboxamide] | reduced inflammation | improved mobility without concomitant pain | – | – |
| COc1ccc(S(=O)(=O)N2CCCN(S(C)(=O)=O)C2C(=O)NO)cc1 (racemic) [Example 3, N-hydroxy 1-[(4-methoxyphenyl)sulfonyl]-3-[methylsulphonyl]-hexahydro-pyrimidine-2(R, S)-carboxamide] | – | – | no further advancement of erosion/fibrillation of the articular cartilage | substantially diminished |

From patent US6469000B1, “1,3-diheterocyclic metalloprotease inhibitors” (The Procter & Gamble Co., priority 1996, dated 2002)
